# Test results from patent publication US9630977B2, “Cephalosporin derivatives and pharmaceutical compositions thereof” (Legochem Biosciences, Inc., priority 2011, dated 2017).
# Test system: A. baumannii 49
# Test: In vitro antibacterial activity test (broth microdilution)
# Assay type: cell-based
# Details: Acinetobacter baumannii; A. baumannii 49; read-out: MIC90
# Outline: (§1)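 Stocks at 10,240 ug/mL in DMSO, serially diluted in DMSO then water to final 0.0626–128 ug/mL (2.5% V/V DMSO). CLSI broth microdilution; MIC90, ug/mL.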
row,SMILES,MIC90 [µg/mL]
1,CC(C)(O/N=C(\C(=O)N[C@@H]1C(=O)N2C(C(=O)[O-])=C(/C=C/C[n+]3cnc(N)c(NCCNC(=O)c4cc(=O)c(O)cn4O)c3)CSC12)c1nsc(N)n1)C(=O)O (stereo partly shown) [Compound 25],128

# Test system: P. aeruginosa 6065Y
# Test: as above
# Assay type: cell-based
# Details: Pseudomonas aeruginosa, read-out: MIC90
# Outline: as §1
row,SMILES,MIC90 [µg/mL]
1,CC(C)(O/N=C(\C(=O)N[C@@H]1C(=O)N2C(C(=O)[O-])=C(/C=C/C[n+]3cnc(N)c(NCCNC(=O)c4cc(=O)c(O)cn4O)c3)CSC12)c1nsc(N)n1)C(=O)O (stereo partly shown) [Compound 25],0.5

# Test system: E. cloacae β19
# Test: as above
# Assay type: cell-based
# Details: Enterobacter cloacae, read-out: MIC90
# Outline: as §1
row,SMILES,MIC90 [µg/mL]
1,CC(C)(O/N=C(\C(=O)N[C@@H]1C(=O)N2C(C(=O)[O-])=C(/C=C/C[n+]3cnc(N)c(NCCNC(=O)c4cc(=O)c(O)cn4O)c3)CSC12)c1nsc(N)n1)C(=O)O (stereo partly shown) [Compound 25],1

# Test system: M. catarrhalis 2524
# Test: as above
# Assay type: cell-based
# Details: Moraxella catarrhalis; M. catarrhalis 2524; read-out: MIC90
# Outline: as §1
row,SMILES,MIC90 [µg/mL]
1,CC(C)(O/N=C(\C(=O)N[C@@H]1C(=O)N2C(C(=O)[O-])=C(/C=C/C[n+]3cnc(N)c(NCCNC(=O)c4cc(=O)c(O)cn4O)c3)CSC12)c1nsc(N)n1)C(=O)O (stereo partly shown) [Compound 25],< 0.0625

# Test system: K. pneumoniae β9
# Test: as above
# Assay type: cell-based
# Details: Klebsiella pneumoniae, K. pneumoniae β9; read-out: MIC90
# Outline: as §1
row,SMILES,MIC90 [µg/mL]
1,CC(C)(O/N=C(\C(=O)N[C@@H]1C(=O)N2C(C(=O)[O-])=C(/C=C/C[n+]3cnc(N)c(NCCNC(=O)c4cc(=O)c(O)cn4O)c3)CSC12)c1nsc(N)n1)C(=O)O (stereo partly shown) [Compound 25],< 0.0625

# Test system: P. aeruginosa 40
# Test: as above
# Assay type: cell-based
# Details: Pseudomonas aeruginosa, 40, P. aeruginosa 40; read-out: MIC90
# Outline: as §1
row,SMILES,MIC90 [µg/mL]
1,CC(C)(O/N=C(\C(=O)N[C@@H]1C(=O)N2C(C(=O)[O-])=C(/C=C/C[n+]3cnc(N)c(NCCNC(=O)c4cc(=O)c(O)cn4O)c3)CSC12)c1nsc(N)n1)C(=O)O (stereo partly shown) [Compound 25],< 0.0625

# Test system: E. coli AG100
# Test: as above
# Assay type: cell-based
# Details: Escherichia coli, AG100, E. coli AG100; read-out: MIC90
# Outline: as §1
row,SMILES,MIC90 [µg/mL]
1,CC(C)(O/N=C(\C(=O)N[C@@H]1C(=O)N2C(C(=O)[O-])=C(/C=C/C[n+]3cnc(N)c(NCCNC(=O)c4cc(=O)c(O)cn4O)c3)CSC12)c1nsc(N)n1)C(=O)O (stereo partly shown) [Compound 25],< 0.0625

# Test system: P. aeruginosa 37
# Test: as above
# Assay type: cell-based
# Details: Pseudomonas aeruginosa, 37, P. aeruginosa 37; read-out: MIC90
# Outline: as §1
row,SMILES,MIC90 [µg/mL]
1,CC(C)(O/N=C(\C(=O)N[C@@H]1C(=O)N2C(C(=O)[O-])=C(/C=C/C[n+]3cnc(N)c(NCCNC(=O)c4cc(=O)c(O)cn4O)c3)CSC12)c1nsc(N)n1)C(=O)O (stereo partly shown) [Compound 25],< 0.0625

# Test system: K. pneumoniae 2011E
# Test: as above
# Assay type: cell-based
# Details: Klebsiella pneumoniae, 2011E, K. pneumoniae 2011E; read-out: MIC90
# Outline: as §1
row,SMILES,MIC90 [µg/mL]
1,CC(C)(O/N=C(\C(=O)N[C@@H]1C(=O)N2C(C(=O)[O-])=C(/C=C/C[n+]3cnc(N)c(NCCNC(=O)c4cc(=O)c(O)cn4O)c3)CSC12)c1nsc(N)n1)C(=O)O (stereo partly shown) [Compound 25],0.25

# Test system: K. pneumoniae β13
# Test: as above
# Assay type: cell-based
# Details: Klebsiella pneumoniae, K. pneumoniae β13; read-out: MIC90
# Outline: as §1
row,SMILES,MIC90 [µg/mL]
1,CC(C)(O/N=C(\C(=O)N[C@@H]1C(=O)N2C(C(=O)[O-])=C(/C=C/C[n+]3cnc(N)c(NCCNC(=O)c4cc(=O)c(O)cn4O)c3)CSC12)c1nsc(N)n1)C(=O)O (stereo partly shown) [Compound 25],< 0.0625

# Test system: K. pneumoniae β11
# Test: as above
# Assay type: cell-based
# Details: Klebsiella pneumoniae; K. pneumoniae β11; read-out: MIC90
# Outline: as §1
row,SMILES,MIC90 [µg/mL]
1,CC(C)(O/N=C(\C(=O)N[C@@H]1C(=O)N2C(C(=O)[O-])=C(/C=C/C[n+]3cnc(N)c(NCCNC(=O)c4cc(=O)c(O)cn4O)c3)CSC12)c1nsc(N)n1)C(=O)O (stereo partly shown) [Compound 25],> 128

# Test system: A. baumannii 52
# Test: as above
# Assay type: cell-based
# Details: Acinetobacter baumannii; A. baumannii 52; read-out: MIC90
# Outline: as §1
row,SMILES,MIC90 [µg/mL]
1,CC(C)(O/N=C(\C(=O)N[C@@H]1C(=O)N2C(C(=O)[O-])=C(/C=C/C[n+]3cnc(N)c(NCCNC(=O)c4cc(=O)c(O)cn4O)c3)CSC12)c1nsc(N)n1)C(=O)O (stereo partly shown) [Compound 25],8

# Test system: P. aeruginosa 1912E
# Test: as above
# Assay type: cell-based
# Details: Pseudomonas aeruginosa, 1912E, read-out: MIC90
# Outline: as §1
row,SMILES,MIC90 [µg/mL]
1,CC(C)(O/N=C(\C(=O)N[C@@H]1C(=O)N2C(C(=O)[O-])=C(/C=C/C[n+]3cnc(N)c(NCCNC(=O)c4cc(=O)c(O)cn4O)c3)CSC12)c1nsc(N)n1)C(=O)O (stereo partly shown) [Compound 25],0.25

# Test system: P. aeruginosa 43
# Test: as above
# Assay type: cell-based
# Details: Pseudomonas aeruginosa; P. aeruginosa 43; read-out: MIC90
# Outline: as §1
row,SMILES,MIC90 [µg/mL]
1,CC(C)(O/N=C(\C(=O)N[C@@H]1C(=O)N2C(C(=O)[O-])=C(/C=C/C[n+]3cnc(N)c(NCCNC(=O)c4cc(=O)c(O)cn4O)c3)CSC12)c1nsc(N)n1)C(=O)O (stereo partly shown) [Compound 25],0.25

# Test system: K. pneumoniae β10
# Test: as above
# Assay type: cell-based
# Details: Klebsiella pneumoniae; K. pneumoniae β10; read-out: MIC90
# Outline: as §1
row,SMILES,MIC90 [µg/mL]
1,CC(C)(O/N=C(\C(=O)N[C@@H]1C(=O)N2C(C(=O)[O-])=C(/C=C/C[n+]3cnc(N)c(NCCNC(=O)c4cc(=O)c(O)cn4O)c3)CSC12)c1nsc(N)n1)C(=O)O (stereo partly shown) [Compound 25],< 0.0625

# Test system: K. pneumoniae β14
# Test: as above
# Assay type: cell-based
# Details: Klebsiella pneumoniae, read-out: MIC90
# Outline: as §1
row,SMILES,MIC90 [µg/mL]
1,CC(C)(O/N=C(\C(=O)N[C@@H]1C(=O)N2C(C(=O)[O-])=C(/C=C/C[n+]3cnc(N)c(NCCNC(=O)c4cc(=O)c(O)cn4O)c3)CSC12)c1nsc(N)n1)C(=O)O (stereo partly shown) [Compound 25],16

# Test system: E. coli β4
# Test: as above
# Assay type: cell-based
# Details: Escherichia coli, read-out: MIC90
# Outline: as §1
row,SMILES,MIC90 [µg/mL]
1,CC(C)(O/N=C(\C(=O)N[C@@H]1C(=O)N2C(C(=O)[O-])=C(/C=C/C[n+]3cnc(N)c(NCCNC(=O)c4cc(=O)c(O)cn4O)c3)CSC12)c1nsc(N)n1)C(=O)O (stereo partly shown) [Compound 25],< 0.0625

# Test system: A. calcoaceticus ATCC15473
# Test: as above
# Assay type: cell-based
# Details: Acinetobacter calcoaceticus; A. calcoaceticus ATCC15473; read-out: MIC90
# Outline: as §1
row,SMILES,MIC90 [µg/mL]
1,CC(C)(O/N=C(\C(=O)N[C@@H]1C(=O)N2C(C(=O)[O-])=C(/C=C/C[n+]3cnc(N)c(NCCNC(=O)c4cc(=O)c(O)cn4O)c3)CSC12)c1nsc(N)n1)C(=O)O (stereo partly shown) [Compound 25],0.25

# Test system: A. baumannii 46
# Test: as above
# Assay type: cell-based
# Details: Acinetobacter baumannii; A. baumannii 46; read-out: MIC90
# Outline: as §1
row,SMILES,MIC90 [µg/mL]
1,CC(C)(O/N=C(\C(=O)N[C@@H]1C(=O)N2C(C(=O)[O-])=C(/C=C/C[n+]3cnc(N)c(NCCNC(=O)c4cc(=O)c(O)cn4O)c3)CSC12)c1nsc(N)n1)C(=O)O (stereo partly shown) [Compound 25],0.5
